Counter-ions that a name gives are not always drawn.
Assays:
[1] = biological target: T1, CCK-A receptor (Mus musculus, UniProt O08786); experiment: CCK-A receptor antagonism: displacement of [3H]CCK-8 from crude membrane of pancreas; format: binding, mouse (male ddY); conditions: [3H]CCK-8 1 nM, 90 min, 25° C.
T1 construct: crude membrane specimen from mouse pancreas; from tissue; host or cells: pancreas of male ddY mice, crude membranes
T1 sequence (O08786 1-436): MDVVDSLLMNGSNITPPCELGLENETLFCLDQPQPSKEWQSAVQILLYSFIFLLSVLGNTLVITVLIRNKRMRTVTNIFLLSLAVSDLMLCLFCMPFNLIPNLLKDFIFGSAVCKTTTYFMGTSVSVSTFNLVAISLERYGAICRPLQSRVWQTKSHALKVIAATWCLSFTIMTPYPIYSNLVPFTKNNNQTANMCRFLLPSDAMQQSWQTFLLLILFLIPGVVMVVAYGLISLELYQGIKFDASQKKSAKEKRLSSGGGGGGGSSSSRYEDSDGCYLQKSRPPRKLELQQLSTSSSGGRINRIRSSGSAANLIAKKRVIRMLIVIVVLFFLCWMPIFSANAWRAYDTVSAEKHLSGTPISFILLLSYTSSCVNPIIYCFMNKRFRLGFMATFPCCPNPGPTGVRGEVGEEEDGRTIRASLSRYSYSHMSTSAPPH
Protocol: (§1) The pharmacological effect of compounds (I) prepared in Examples above were evaluated in vitro with respect to antagonistic activity against gastrin receptor, CCK-B receptor or CCK-A receptor, using fundic gland cells of guinea pig, crude membrane specimen from mouse cerebral cortex, or crude membrane specimen from mouse pancreas, respectively.
(§2) Male Hartley guinea pig (450-600 g) or male ddY mouse (24-30 g) were used.
(§3) (2) CCK-A Receptor Antagonism and CCK-B Receptor Antagonism Preparation of CCK receptor preparations Male ddY mice (24 to 30 g) were killed by decapitation and cerebral cortex (CCK-B) and pancreas (CCK-A) were extracted immediately. Each of cerebral cortex and pancreas was mixed with 50 mM Tris-HCl buffer (pH 7.4) and homogenized with a teflon-glass homogenizer and polytron homogenizer to obtain crude membrane specimens.
(§4) Preparation of test compounds and procedures of displacing assay
(§5) A 1M solution of a compound to be tested in DMSO is prepared and diluted with 50% DMSO to obtain a ten-fold dilution series.
(§6) The reaction is initiated by the addition of crude membrane specimen to solutions of different concentration each containing [^3 H]CCk-8 (final concentration, 1 nM). The mixture is incubated for 90 min at 25° C., filtered through glass filter with aspiration and washed with a cooled 50 mM Tris buffer. After the addition of Aquazol-2 cocktail the radioactivity is counted. The same procedure was repeated using 50% DMSO solution or Ceruletide (final concentration, 1 μM) instead of a solution of test compound so as to obtain the control value regarding total binding or the value regarding non-specific binding, respectively.
(§7) The IC50 was determined by plotting the ratio (%) of specific binding of a test compound to that of control on semilogarithmic graph and obtaining the concentration corresponding to 50%, wherein: specific binding of control=total binding (cpm)--non-specific binding (cpm); and specific binding of test compound=total binding (cpm)--non-specific binding (cpm).

[2] = biological target: T2, gastrin receptor (Cavia porcellus, UniProt H0VZC5); experiment: Gastrin receptor antagonism: displacement of 125I-labeled gastrin from gastric glands; format: binding, guinea pig (male Hartley); conditions: guinea pig fundic gastric glands; 125I-gastrin 0.2 nM; 30 min, 25° C.
T2 construct: stomach was extracted from each animal immediately, from which gastric glands were prepared; from tissue; host or cells: gastric (fundic) glands of male Hartley guinea pigs
T2 sequence (H0VZC5 1-426): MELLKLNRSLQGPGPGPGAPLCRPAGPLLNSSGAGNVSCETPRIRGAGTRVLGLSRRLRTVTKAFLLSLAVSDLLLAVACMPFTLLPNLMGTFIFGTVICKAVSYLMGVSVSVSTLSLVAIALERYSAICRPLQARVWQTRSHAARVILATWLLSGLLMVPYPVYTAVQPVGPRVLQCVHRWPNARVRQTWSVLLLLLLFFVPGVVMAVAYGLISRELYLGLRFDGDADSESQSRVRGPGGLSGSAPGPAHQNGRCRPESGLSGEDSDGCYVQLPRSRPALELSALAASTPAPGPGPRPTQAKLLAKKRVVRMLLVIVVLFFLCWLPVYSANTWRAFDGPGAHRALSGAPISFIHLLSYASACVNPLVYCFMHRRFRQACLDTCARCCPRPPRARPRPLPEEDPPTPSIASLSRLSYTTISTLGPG
Protocol: as §1, §2
(1) Gastrin Receptor Antagonism
Preparation of gastric glands
Male Hadley guinea pigs (450-600 g) were killed by bleeding and stomach was extracted from each animal immediately, from which gastric glands were prepared.
Preparation of test compounds and procedures of displacing assay A 1M solution of a compound to be tested in DMSO is prepared and diluted with 50% DMSO to obtain a ten-fold dilution series.
The reaction is initiated by the addition of gastric glands to solutions of different concentration each containing ^125 I-labeled gastrin (final concentration, 0.2 nM). The mixture is incubated for 30 min at 25° C., centrifuged at 2000 rpm for 5 min and the supernatant is removed by aspiration. To the pellet is added ice-cooled incubation buffer and mixed gently, followed by an immediate centrifugation and removal of the supernatant by aspiration. The radioactivity is counted on gamma counter. The same procedure was repeated using 50% DMSO solution or human gastrin I (final concentration, 2 μM) instead of a solution of test compound so as to obtain the control value regarding total binding or the value regarding non-specific binding, respectively.
as §7

[3] = biological target: T3, CCK-B receptor (Mus musculus, UniProt P56481); experiment: CCK-B receptor antagonism: displacement of [3H]CCK-8 from crude membrane of cerebral cortex; format: binding, mouse (male ddY); conditions: [3H]CCK-8 1 nM, 90 min, 25° C.
T3 construct: crude membrane specimen from mouse cerebral cortex; from tissue; host or cells: cerebral cortex of male ddY mice, crude membranes
T3 sequence (P56481 1-453): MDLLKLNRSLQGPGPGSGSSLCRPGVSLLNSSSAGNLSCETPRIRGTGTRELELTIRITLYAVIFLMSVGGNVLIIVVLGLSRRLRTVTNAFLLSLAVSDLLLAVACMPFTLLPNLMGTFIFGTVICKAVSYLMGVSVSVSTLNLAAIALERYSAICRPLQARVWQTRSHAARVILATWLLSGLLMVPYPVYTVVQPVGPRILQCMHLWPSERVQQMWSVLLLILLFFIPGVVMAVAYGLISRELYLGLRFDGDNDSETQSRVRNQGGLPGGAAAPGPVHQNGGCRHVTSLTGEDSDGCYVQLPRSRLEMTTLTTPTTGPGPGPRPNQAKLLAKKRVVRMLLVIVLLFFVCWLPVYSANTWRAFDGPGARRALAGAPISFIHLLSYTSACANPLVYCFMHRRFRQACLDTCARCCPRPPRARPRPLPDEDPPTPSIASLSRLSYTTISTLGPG
Protocol: as §1, §2, §3, §4, §5, §6, §7

[4] = system: gastric acid secretion; experiment: Inhibitory effect on pentagastrin-stimulated gastric acid secretion in anesthetized rat (perfused stomach, Schild method); format: in vivo, rat (Sprague Dawley); conditions: intraduodenal (i.d.), 0.5% M.C. suspension
From the text: Anti-acid secreting function of carbamoylmethylurea derivative (I) of the present invention has been confirmed by the in vivo experiment (cf. Schild Method; Experiment 1 below). […] From the results of these experiments, it is apparent that the carbamoylmethylurea derivative (I) has an anti-acid secreting function, and is an excellent gastrin receptor antagonist and/or CCK-B receptor antagonist which has enough functional separativeness from CCK-A receptor.
Experiment 1 In Vivo Test
Evaluation of Inhibitory Effect on Gastric Acid Secretion by Child Method
Twenty four hour starved (ad libitum for water) male Sprague Daily rats (8-week-old) were anesthetized with urethane (1.5 g/kg S.C.) and kept breathing with esophagus cannulas. After laparotomy, esophagus cannulas were inserted orally up to proventriculus and ligated around gastric cardiac. Perfusion cannulas were inserted from duodenum into stomach and ligated around pylorus. Another cannulas were placed into duodenum and ligated for administration of drug. After sutra of abdomen, stomach was perfused via the esophagus cannulas with physiological saline (37° C.) while collecting perfusate for a 15 min interval. The perfusate was subjected to titration with 0.001N NaOH solution to determine the acidity. When the basal acid secretion became stable, pentagastrin ([…])was administered in a sustained manner via common carotid vein for about 90 min until the acid secretion reached approximately the highest level, when a test compound (0.5% M.C. suspension) was administered into duodenum through cannulas. The perfusate was collected for a 15 min interval to monitor the acid secretion for 90 min. The percent inhibition was calculated as follows:
Percent inhibition (%)=100×(A-B)/(C-B)
A: the minimum value of total acidity observed after the administration of a test compound;
B: the total acidity obtained immediately before the administration of pentagastrin; and
C: the total acidity obtained immediately before the administration of a test compound.

Structure (SMILES) | IC50 [1] [nM] | IC50 [2] [nM] | IC50 [3] [nM] | Inhibitory Effect on acid secretion in rat ED50, i.d. ([4]; sodium salt) [mg/kg] | Inhibitory Effect on acid secretion in rat ED50, i.d. [4] [mg/kg] | ED50 ([4]; Rattus norvegicus) [mg/kg] | Inhibitory Effect on acid secretion in rat ED50, i.d. ([4]; calcium salt) [mg/kg]
Cc1ccc(NC(=O)NCC(=O)N(CC(=O)OC(C)(C)C)c2ccccc2C(=O)c2ccccc2)cc1 [Compound 7z, 2-(N-(tert-Butoxycarbonylmethyl)-N'-(p-tolyl)ureidomethylcarbonylamino)benzophenone] | 1900 | 6 | 66 |  |  |  | 
C=CCOC(=O)c1cccc(NC(=O)NCC(=O)N(CC(=O)NC(C)(C)C)c2ccccc2C(=O)c2ccccc2)c1 [Compound 16a, 2-(N-(tert-Butylcarbamoylmethyl)-N'-(m-(aryloxycarbamoyl)phenyl)ureidomethylcarbonylamino)benzophenone] | 4400 | 25 | 215 |  |  |  | 
CC(C)(C)OC(=O)CN(C(=O)CNC(=O)Nc1ccc(Cl)cc1)c1ccccc1C(=O)c1ccccc1 [Compound 7y, 2-(N-(tert-Butoxycarbonylmethyl)-N'-(p-chlorophenyl)ureidomethylcarbonylamino)benzophenone] | 1800 | 42 | 190 |  |  |  | 
CC(C)(C)OC(=O)CN(C(=O)CNC(=O)Nc1cccc(C(=O)O)c1)c1ccccc1C(=O)C1CCCCC1 [Compound 15d, Cyclohexyl-(2-(N-(t-butoxycarbonylmethyl)-N-(N'-(m-carboxyphenyl)ureidomethylcarbonyl)amino)phenyl)ketone] | 2000 | 3 | 6 |  |  |  | 
CC(C)(C)OC(=O)CN(C(=O)CNC(=O)Nc1cccc(C(=O)O)c1)c1ccccc1C(=O)c1ccccc1 [Compound 8ha, 2-[(tert-Butoxycarbonylmethyl)-[3-(m-(carboxylphenyl)ureidomethylcarbonyl]]aminobenzophenone sodium salt] | 3400 | 2 | 42 | 0.003 |  |  | 
CC(C)(C)OC(=O)CN(C(=O)CNC(=O)Nc1cccc(-c2nnn(C(c3ccccc3)(c3ccccc3)c3ccccc3)n2)c1)c1ccccc1C(=O)c1ccccc1 [Compound 7f, 2-(N-(tert-Butoxycarbonylmethyl)-N'-(m-(2-(triphenylmethyl)tetrazol-5-yl)phenyl)ureidomethylcarbonylamino)benzophenone] | 1650 | 1 | 8 |  |  |  | 
CC(C)(C)OC(=O)CN(C(=O)CNC(=O)Nc1cccc(OCC(=O)O)c1)c1ccccc1C(=O)c1ccccc1 [Compound 8j, 2-(N-(tert-Butoxycarbonylmethyl)-N'-(m-(carboxymethyloxy)phenyl)ureidomethylcarbonylamino)benzophenone] | 2200 | 3 | 8 |  |  |  | 
CC(C)(C)OC(=O)CN(C(=O)CNC(=O)Nc1cccc(CC(=O)O)c1)c1ccccc1C(=O)c1ccccc1 [Compound 8i, 2-(N-(tert-Butoxycarbonylmethyl)-N'-(m-(carboxymethyl)phenyl)ureidomethylcarbonylamino)benzophenone] | 1700 | 2 | 3 |  |  |  | 
CC(C)(C)NC(=O)CN(C(=O)CNC(=O)Nc1cccc(C(=O)O)c1)c1ccccc1C(=O)c1ccccc1 [Compound 16b, 2-(N-(tert-Butylcarbamoylmethyl)-N'-(m-carboxyphenyl)ureidomethylcarbonylamino)benzophenone] | > 10000 | 6 | 210 |  |  |  | 
CC(C)(C)OC(=O)CN(C(=O)CNC(=O)Nc1cccc(C(=O)O)c1)c1ccccc1C(=O)c1ccccc1 [Compound 8h] | 5000 | 4 | 64 |  | 0.014 |  | 
COC(=O)Cc1cccc(NC(=O)NCC(=O)N(CC(=O)OC(C)(C)C)c2ccccc2C(=O)c2ccccc2)c1 [Compound 9m] | 1350 | 2 | 11 |  |  |  | 
COC(=O)c1cccc(NC(=O)NCC(=O)N(CC(=O)OC(C)(C)C)c2ccccc2C(=O)c2ccccc2)c1 [Compound 9l, 2-(N-(tert-Butoxycarbonylmethyl)-N'-(m-(carbomethoxy)phenyl)ureidomethylcarbonylamino)benzophenone] | 1350 | 7 | 56 |  |  | 0.04 | 
CC(C)(C)OC(=O)CN(C(=O)CNC(=O)Nc1cccc(C(=O)O)c1)c1ccccc1C(=O)c1ccccc1 [Compound 8hb, 2-[(tert-Butoxycarbonylmethyl)-[3-(m-(carboxyphenyl)ureidomethylcarbonyl]]aminobenzophenone calcium salt] |  | 3 | 54 |  |  |  | 0.007
